From patent US8410151B2, “Aminomethyl benzene derivatives” (Actelion Pharmaceuticals Ltd, priority 2009, dated 2013) come the findings set out here.

Sequence of recombinant human S1P1 receptor (P21453 whole entry): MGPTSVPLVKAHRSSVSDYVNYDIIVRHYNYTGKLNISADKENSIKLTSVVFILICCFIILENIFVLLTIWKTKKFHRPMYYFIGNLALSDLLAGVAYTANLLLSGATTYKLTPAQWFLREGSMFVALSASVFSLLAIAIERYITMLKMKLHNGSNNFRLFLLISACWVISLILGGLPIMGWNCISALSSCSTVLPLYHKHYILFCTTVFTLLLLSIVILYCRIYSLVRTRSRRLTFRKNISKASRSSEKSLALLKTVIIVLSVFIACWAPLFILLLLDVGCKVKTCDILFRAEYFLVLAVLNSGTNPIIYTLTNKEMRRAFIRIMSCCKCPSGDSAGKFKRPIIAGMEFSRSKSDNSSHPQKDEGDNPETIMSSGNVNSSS

The target of one assay is recombinant human S1P1 receptor (Homo sapiens, UniProt P21453). Put plainly: GTPγS assay to determine EC50 values. The class given is biochemical. Particulars: 35S-GTPγS binding, CHO membranes, human S1P1. The procedure:
GTPγS binding assays are performed in 96 well microtiter plates (Nunc, 442587) in a final volume of 200 μl, using membrane preparations of CHO cells expressing recombinant human S1P1 receptor. Assay conditions are 20 mM Hepes (Fluka, 54461), 100 mM NaCl (Fluka, 71378), 5 mM MgCl2 (Fluka, 63064), 0.1% BSA (Calbiochem, 126609), 1 μM GDP (Sigma, G-7127), 2.5% DMSO (Fluka, 41644), 50 pM ^355-GTPγS (Amersham Biosciences, SJ1320). The pH is 7.4. Test compounds are dissolved and diluted in 100% DMSO and pre-incubated at room temperature for 30 min in 150 μl of the above assay buffer, in the absence of ^355-GTPγS. After addition of 50 μl of ^355-GTPγS, the assay is incubated for 1 h at rt. The assay is terminated by transfer of the reaction mixture to a Multiscreen plate (Millipore, MAHFC1H60) using a cell harvester from Packard Biosciences, and the plates are washed with ice-cold 10 mM Na2HPO4/NaH2PO4 (70%/30%), dried, sealed at the bottom and, after addition of 25 μl MicroScint20 (Packard Biosciences, order #6013621), sealed on the top. Membrane-bound ^35S-GTPγS is measured with a TopCount from Packard Biosciences.
EC50 is the concentration of agonist inducing 50% of the maximal specific ^35S-GTPγS binding. Specific binding is determined by subtracting non-specific binding from maximal binding. Maximal binding is the amount of cpm bound to the Multiscreen plate in the presence of 10 μM of S1P. Non-specific binding is the amount of binding in the absence of an agonist in the assay.
Regarding `CNCc1cccc(-c2nc(-c3cc(C)c(OCC(O)CNC(=O)CO)c(C)c3)no2)c1` (racemic) [Example 1], the EC50 is more than 10000 nM.

Still in this assay, the particulars now being: 35S-GTPγS binding, membrane preparations of CHO cells expressing recombinant human S1P1 receptor.
Take `CCN(C)Cc1cc(C)cc(-c2nc(-c3cc(C)c(OC[C@@H](O)CO)c(Cl)c3)no2)c1` [Example 144, (S)-3-[2-chloro-4-(5-{3-[(ethyl-methyl-amino)-methyl]-5-methyl-phenyl}-[1,2,4]oxadiazol-3-yl)-6-methyl-phenoxy]-propane-1,2-diol]: the EC50 came to 2 nM. Take `CCc1cc(CN(C)CC)cc(-c2nc(-c3cc(C)c(OC[C@@H](O)CNC(=O)CO)c(CC)c3)no2)c1` [Example 50, N—{(S)-3-[2-ethyl-4-(5-{3-ethyl-5-[(ethyl-methyl-amino)-methyl]-phenyl}-[1,2,4]oxadiazol-3-yl)-6-methyl-phenoxy]-2-hydroxy-propyl}-2-hydroxy-acetamide]: the EC50 was found to be 5.3 nM. For the compound `CCc1cc(-c2noc(-c3cc(CN(C)CC(C)C)cc(C(C)C)c3)n2)cc(C)c1OC[C@@H](O)CNC(=O)CO` [Example 73, N—{(S)-3-[2-ethyl-4-(5-{3-[(isobutyl-methyl-amino)-methyl]-5-isopropyl-phenyl}-[1,2,4]oxadiazol-3-yl)-6-methyl-phenoxy]-2-hydroxy-propyl}-2-hydroxy-acetamide], the concentration giving a half-maximal response (EC50) came to 2 nM.

With “N-(3-{4-[5-(4-dimethylaminomethyl-3-methyl-phenyl)-[1,2,4]oxadiazol-3-yl]-2,6-dimethyl-phenoxy}-2-hydroxy-propyl)-2-hydroxy-acetamide [Example 127]”, the EC50 was 8.5 nM.

In the case of `CCc1cc(CN(C)C)cc(-c2nc(-c3cc(C)c(OC[C@@H](O)CNC(=O)CO)c(CC)c3)no2)c1` [Example 49, N—((S)-3-{4-[5-(3-dimethylaminomethyl-5-ethyl-phenyl)-[1,2,4]oxadiazol-3-yl]-2-ethyl-6-methyl-phenoxy}-2-hydroxy-propyl)-2-hydroxy-acetamide], the 50% effective concentration (EC50) came out at 3.7 nM.

As to `CCCCN(C)Cc1cc(CCC)cc(-c2nc(-c3cc(C)c(OC[C@@H](O)CNC(=O)CO)c(CC)c3)no2)c1` [Example 62, N—{(S)-3-[4-(5-{3-[(butyl-methyl-amino)-methyl]-5-propyl-phenyl}-[1,2,4]oxadiazol-3-yl)-2-ethyl-6-methyl-phenoxy]-2-hydroxy-propyl}-2-hydroxy-acetamide], the EC50 is 3.1 nM. Still for that read-out and setting: then `CCc1cc(-c2noc(-c3cc(C)cc(CN(C)CC(C)C)c3)n2)cc(C)c1OC[C@@H](O)CNC(=O)CO` [Example 19, N—{(S)-3-[2-ethyl-4-(5-{3-[(isobutyl-methyl-amino)-methyl]-5-methyl-phenyl}-[1,2,4]oxadiazol-3-yl)-6-methyl-phenoxy]-2-hydroxy-propyl}-2-hydroxy-acetamide], with 2.2 nM.

As for `CCCCN(C)Cc1cc(CC)cc(-c2nc(-c3cc(C)c(OC[C@@H](O)CNC(=O)CO)c(CC)c3)no2)c1` [Example 52, N—{(S)-3-[4-(5-{3-[(butyl-methyl-amino)-methyl]-5-ethyl-phenyl}-[1,2,4]oxadiazol-3-yl)-2-ethyl-6-methyl-phenoxy]-2-hydroxy-propyl}-2-hydroxy-acetamide], the EC50 was found to be 2 nM. Turning to `CCCN(C)Cc1cc(CC)cc(-c2nc(-c3cc(C)c(OC[C@@H](O)CNC(=O)CO)c(CC)c3)no2)c1` [Example 51, N—{(S)-3-[2-ethyl-4-(5-{3-ethyl-5-[(methyl-propyl-amino)-methyl]-phenyl}-[1,2,4]oxadiazol-3-yl)-6-methyl-phenoxy]-2-hydroxy-propyl}-2-hydroxy-acetamide], the 50% effective concentration (EC50) is 2.4 nM. On the same count and under the same terms, then `CCc1cc(-c2noc(-c3cc(CN4CCCC4)cc(C(C)C)c3)n2)cc(C)c1OC[C@@H](O)CNC(=O)CO` [Example 75, N—((S)-3-{2-ethyl-4-[5-(3-isopropyl-5-pyrrolidin-1-ylmethyl-phenyl)-[1,2,4]oxadiazol-3-yl]-6-methyl-phenoxy}-2-hydroxy-propyl)-2-hydroxy-acetamide], with 7.2 nM; and `CCCc1cc(CNCC(C)C)cc(-c2nc(-c3cc(C)c(OC[C@@H](O)CNC(=O)CO)c(CC)c3)no2)c1` [Example 58, N—[(S)-3-(2-ethyl-4-{5-[3-(isobutylamino-methyl)-5-propyl-phenyl]-[1,2,4]oxadiazol-3-yl}-6-methyl-phenoxy)-2-hydroxy-propyl]-2-hydroxy-acetamide], with 8.4 nM. In the case of `CCc1cc(-c2nc(-c3cc(C)c(OC[C@@H](O)CNC(=O)CO)c(CC)c3)no2)ccc1CN(C)CC` [Example 100, N—{(S)-3-[2-ethyl-4-(5-{3-ethyl-4-[(ethyl-methyl-amino)-methyl]-phenyl}-[1,2,4]oxadiazol-3-yl)-6-methyl-phenoxy]-2-hydroxy-propyl}-2-hydroxy-acetamide], the concentration giving a half-maximal response (EC50) was found to be 1.6 nM. As to `CCc1cc(-c2nc(-c3cc(C)c(OC[C@@H](O)CNC(=O)CO)c(CC)c3)no2)ccc1CN1CCCC1` [Example 105, N—((S)-3-{2-ethyl-4-[5-(3-ethyl-4-pyrrolidin-1-ylmethyl-phenyl)-[1,2,4]oxadiazol-3-yl]-6-methyl-phenoxy}-2-hydroxy-propyl)-2-hydroxy-acetamide], the 50% effective concentration (EC50) turned out to be 8 nM. As to `CCCN(C)Cc1cc(-c2nc(-c3cc(C)c(OC[C@@H](O)CNC(=O)CO)c(CC)c3)no2)cc(C(C)C)c1` [Example 71, N—{(S)-3-[2-ethyl-4-(5-{3-isopropyl-5-[(methyl-propyl-amino)-methyl]-phenyl}-[1,2,4]oxadiazol-3-yl)-6-methyl-phenoxy]-2-hydroxy-propyl}-2-hydroxy-acetamide], the EC50 is 2.1 nM. Turning to `CCN(C)Cc1cc(C)cc(-c2nc(-c3cc(C)c(OC[C@@H](O)CNC(=O)CO)c(C)c3)no2)c1` [Example 147, N—{(S)-3-[4-(5-{3-[(ethyl-methyl-amino)-methyl]-5-methyl-phenyl}-[1,2,4]oxadiazol-3-yl)-2,6-dimethyl-phenoxy]-2-hydroxy-propyl}-2-hydroxy-acetamide], the EC50 was found to be 2 nM. Regarding `CCCCN(CC)Cc1cc(C)cc(-c2nc(-c3cc(C)c(OC[C@@H](O)CNC(=O)CO)c(CC)c3)no2)c1` [Example 21, N—{(S)-3-[4-(5-{3-[(butyl-ethyl-amino)-methyl]-5-methyl-phenyl}-[1,2,4]oxadiazol-3-yl)-2-ethyl-6-methyl-phenoxy]-2-hydroxy-propyl}-2-hydroxy-acetamide], the 50% effective concentration (EC50) turned out to be 5.6 nM. On to `CCCCN(C)Cc1ccc(-c2nc(-c3cc(C)c(OC[C@@H](O)CNC(=O)CO)c(CC)c3)no2)cc1C` [Example 42, N—{(S)-3-[4-(5-{4-[(butyl-methyl-amino)-methyl]-3-methyl-phenyl}-[1,2,4]oxadiazol-3-yl)-2-ethyl-6-methyl-phenoxy]-2-hydroxy-propyl}-2-hydroxy-acetamide], for which the EC50 was 5.8 nM. With `CCCc1cc(CN(C)CCC)cc(-c2nc(-c3cc(C)c(OC[C@@H](O)CNC(=O)CO)c(CC)c3)no2)c1` [Example 61, N—{(S)-3-[2-ethyl-6-methyl-4-(5-{3-[(methyl-propyl-amino)-methyl]-5-propyl-phenyl}-[1,2,4]oxadiazol-3-yl)-phenoxy]-2-hydroxy-propyl}-2-hydroxy-acetamide], the concentration for a half-maximal effect (EC50) is 3.6 nM. `CCCCN(C)Cc1cc(-c2nc(-c3cc(C)c(OC[C@@H](O)CNC(=O)CO)c(CC)c3)no2)cc(C(C)C)c1` [Example 72, N—{(S)-3-[4-(5-{3-[(butyl-methyl-amino)-methyl]-5-isopropyl-phenyl}-[1,2,4]oxadiazol-3-yl)-2-ethyl-6-methyl-phenoxy]-2-hydroxy-propyl}-2-hydroxy-acetamide]: the EC50 came out at 2.3 nM. With `CCc1ccc(-c2nc(-c3cc(C)c(OC[C@@H](O)CNC(=O)CO)c(CC)c3)no2)cc1CN(C)C` [Example 89], the EC50 was determined as 22 nM. For the compound `CCN(C)Cc1cc(C)cc(-c2nc(-c3cc(C)c(OC[C@@H](O)CNC(=O)CO)c(Cl)c3)no2)c1` [Example 148, N—{(S)-3-[2-chloro-4-(5-{3-[(ethyl-methyl-amino)-methyl]-5-methyl-phenyl}-[1,2,4]oxadiazol-3-yl)-6-methyl-phenoxy]-2-hydroxy-propyl}-2-hydroxy-acetamide], the EC50 was 1.3 nM.

A further assay concerns circulating lymphocytes. Put plainly: Assessment of in vivo efficacy: circulating lymphocytes after oral administration. On the set-up: species or system normotensive male Wistar rats. As to conditions: 3 h after oral administration of 10 mg/kg, male Wistar rats, compared to vehicle-treated group. The procedure:
The efficacy of the compounds of formula (I) is assessed by measuring the circulating lymphocytes after oral administration of 3 to 30 mg/kg of a compound of formula (I) to normotensive male Wistar rats. The animals are housed in climate-controlled conditions with a 12 h-light/dark cycle, and have free access to normal rat chow and drinking water.
Blood is collected before and 3, 6 and 24 h after drug administration. Full blood is subjected to hematology using Advia Hematology system (Bayer Diagnostics, Zurich, Switzerland).
All data are presented as mean±SEM. Statistical analyses are performed by analysis of variance (ANOVA) using Statistica (StatSoft) and the Student-Newman-Keuls procedure for multiple comparisons. The null hypothesis is rejected when p<0.05.
Take `CCc1cc(CN(C)CC(C)C)cc(-c2nc(-c3cc(C)c(OC[C@@H](O)CNC(=O)CO)c(CC)c3)no2)c1` [Example 53, N—{(S)-3-[2-ethyl-4-(5-{3-ethyl-5-[(isobutyl-methyl-amino)-methyl]-phenyl}-[1,2,4]oxadiazol-3-yl)-6-methyl-phenoxy]-2-hydroxy-propyl}-2-hydroxy-acetamide]: the Lymphocyte counts is −61.0%.

What is called EC50 is the concentration needed to bring the measured effect to its halfway point.
